Laboratory results reported in patent US20240270821A1, “GIP/GLP1/GCG TRI-RECEPTOR AGONISTS AND USES THEREOF” (priority 2023, published 2024).
pEC50: −log10 of the molar value. Like-named read-outs stand apart in the source and are kept apart here. Starred links: 1 amine or outer side, 2 acyl side, 3 side chain; linkers in the order of their positions; H or OH if unused. Non-standard residues stand in square brackets, D forms with d. Residues, ends and D or L forms follow the SMILES beside them. Groups on a side chain read outwards from the residue. No end group written: not given here. *: point of attachment. C20 diacid = O=C(O)CCCCCCCCCCCCCCCCCCC(=O)*; C18 diacid = O=C(O)CCCCCCCCCCCCCCCCC(=O)*; αMePhe(2-F) = C[C@](N)(Cc1ccccc1F)C(=O)O; γGlu = O=C(O)[C@H](CCC(=O)[*:2])N[*:1]; αMe4Pal = C[C@](N)(Cc1ccncc1)C(=O)O; αMeY = C[C@](N)(Cc1ccc(O)cc1)C(=O)O; 4Pal = N[C@@H](Cc1ccncc1)C(=O)O; αMeL = CC(C)C[C@](C)(N)C(=O)O; αMeS = C[C@](N)(CO)C(=O)O; Orn = NCCC[C@H](N)C(=O)O; AEEA = NCCOCCOCC(=O)O; Aib = CC(C)(N)C(=O)O

Key:
Format in all cases: cell-based
hGIPR [1] = molecular target: T1, hGIPR (Homo sapiens, UniProt P48546); test: Functional cAMP activity in the presence of 1% HSA; details: read-out: cAMP Rel EC50, hGIPR
T1 sequence (P48546 22-466): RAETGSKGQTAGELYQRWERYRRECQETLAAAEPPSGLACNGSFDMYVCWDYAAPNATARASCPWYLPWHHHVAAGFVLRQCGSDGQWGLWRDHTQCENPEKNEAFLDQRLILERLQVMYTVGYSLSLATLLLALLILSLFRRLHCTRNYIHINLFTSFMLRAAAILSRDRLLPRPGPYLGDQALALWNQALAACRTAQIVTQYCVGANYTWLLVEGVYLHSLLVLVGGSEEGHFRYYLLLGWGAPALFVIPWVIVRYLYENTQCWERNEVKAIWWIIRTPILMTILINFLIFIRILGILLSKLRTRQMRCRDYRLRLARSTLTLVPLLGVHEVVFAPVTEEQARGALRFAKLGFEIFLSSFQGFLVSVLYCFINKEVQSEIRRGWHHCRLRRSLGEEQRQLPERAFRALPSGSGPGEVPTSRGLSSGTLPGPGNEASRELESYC

hGLP-1R [2] = molecular target: T2, hGLP-1R (Homo sapiens, UniProt P43220); test: Functional cAMP activity in the presence of 1% HSA; details: read-out: cAMP Rel EC50, hGLP-1R
human GcgR = human GcgR (Homo sapiens, UniProt P47871); test: Functional cAMP activity in the presence of 1% HSA; details: read-out: cAMP Rel EC50, hGcgR
hGIPR [3] = molecular target: T1, hGIPR; test: Functional cAMP activation in the presence of 0.1% casein (no HSA); details: read-out: Relative cAMP EC50, hGIPR;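 on Relative cAMP EC50, hGIPR: intracellular cAMP rise after 30 min at 37 °C read by HTRF against a standard curve, scaled between buffer alone (0%) and top control ligand concentration (100%), four-parameter fit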;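 on Relative cAMP EC50, hGLP-1R: intracellular cAMP rise after 30 min at 37 °C read by HTRF, normalized between buffer only (0%) and maximal control ligand (100%), four-parameter variable-slope fit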;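 on Relative cAMP EC50, hGcgR: intracellular cAMP rise after 30 min at 37 °C, read by HTRF against a cAMP standard curve, scaled from buffer only (0%) to maximal control ligand response (100%)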
hGLP-1R [4] = molecular target: T2, hGLP-1R; test: as above; details: read-out: Relative cAMP EC50, hGLP-1R
hGcgR = hGcgR (Homo sapiens, UniProt P47871); test: as above; details: read-out: Relative cAMP EC50, hGcgR;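 further: intracellular cAMP rise after 30 min at 37 °C, read by HTRF against a cAMP standard curve, scaled from buffer only (0%) to maximal control ligand response (100%)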
[5] = 0.1% casein, no HSA, geometric mean
[6] = in the presence of 0.1% casein (no HSA), geometric mean

hGcgR, sequence (P47871 26-477): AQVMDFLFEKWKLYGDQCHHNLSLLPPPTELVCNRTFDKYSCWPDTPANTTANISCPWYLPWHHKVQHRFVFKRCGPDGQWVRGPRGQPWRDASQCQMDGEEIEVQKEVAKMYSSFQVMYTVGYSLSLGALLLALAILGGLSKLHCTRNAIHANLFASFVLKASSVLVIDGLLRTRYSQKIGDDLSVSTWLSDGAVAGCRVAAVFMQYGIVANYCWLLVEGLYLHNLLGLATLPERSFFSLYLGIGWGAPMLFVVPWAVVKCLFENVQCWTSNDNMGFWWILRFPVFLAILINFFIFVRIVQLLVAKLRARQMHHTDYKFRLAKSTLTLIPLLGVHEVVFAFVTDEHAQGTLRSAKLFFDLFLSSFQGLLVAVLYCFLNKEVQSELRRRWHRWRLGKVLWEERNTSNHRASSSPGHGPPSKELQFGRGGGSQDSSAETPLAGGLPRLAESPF
human GcgR, sequence (P47871 26-477): as above
T2 sequence (P43220 24-463): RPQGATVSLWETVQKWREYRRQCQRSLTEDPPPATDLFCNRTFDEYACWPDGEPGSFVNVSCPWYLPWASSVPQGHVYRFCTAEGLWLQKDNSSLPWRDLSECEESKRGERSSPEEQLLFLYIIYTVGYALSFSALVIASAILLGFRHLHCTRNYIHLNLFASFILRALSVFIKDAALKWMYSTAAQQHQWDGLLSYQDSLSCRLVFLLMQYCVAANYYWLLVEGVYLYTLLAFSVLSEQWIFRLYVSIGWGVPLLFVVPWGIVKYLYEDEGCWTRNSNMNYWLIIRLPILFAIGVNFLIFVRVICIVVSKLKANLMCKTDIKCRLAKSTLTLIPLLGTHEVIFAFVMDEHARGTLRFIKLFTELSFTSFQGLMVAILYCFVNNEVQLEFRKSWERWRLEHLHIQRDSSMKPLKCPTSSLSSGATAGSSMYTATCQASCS

Row | Compound | pEC50 (hGIPR [3]; [6]) | pEC50 (hGLP-1R [4]; [6]) | pEC50 (hGcgR; [6]) | pEC50 (hGIPR [3]) | pEC50 (hGLP-1R [4]) | pEC50 (hGcgR) | pEC50 (hGIPR [1]) | pEC50 (hGLP-1R [2]) | pEC50 (human GcgR) | pEC50 (hGIPR [3]; [5]) | pEC50 (hGLP-1R [4]; [5]) | pEC50 (hGcgR; [5])
1 | Y[Aib]Q[dA]T[αMePhe(2-F)]TSD[4Pal][αMeS]I[αMeL]LD[Orn]K([AEEA-γGlu-C18 diacid])AQ[Aib]EFI[dE][αMeY]LIEGGPSSGAPPPSGS-NH2 [Example 1203] |  |  |  |  |  |  | 8.07 | 7.41 | 6.36 | 10.11 | 9.53 | 8.59
2 | H-Y[Aib]QGTFTSDFSK[αMeL]LDKK([AEEA-γGlu-C20 diacid])AQ[Aib]AFIEYLLEGGPSSGAPPP[γGlu]GE-NH2 [Example 53] | 9.29 | 8.48 | 8.38 |  |  |  | 6.95 | 5.99 | 5.75 |  |  | 
3 | H-Y[Aib]QGTFTSD[4Pal]SK[αMeL]LDKK([AEEA-γGlu-C18 diacid])AQ[Aib]AFIEYLIEGGPSSGAPPPSGS-NH2 [Example 908] | 9.61 | 8.92 | 8.09 |  |  |  | 7.57 | 6.76 | 6.01 |  |  | 
4 | H-Y[Aib]QGT[αMePhe(2-F)]TSD[4Pal][αMeS]I[αMeL]LD[Orn]K([AEEA-γGlu-C18 diacid])AQ[αMe4Pal]EFI[dE][αMeY]LIEGGPSSGAPPPEGGGEEE-NH2 [Example 1217] |  |  |  |  |  |  | 8.97 | 7.20 | 6.60 | 11.00 | 9.12 | 8.70

The next lines start with results.

Row | pEC50 (hGIPR [3]; [6]) | pEC50 (hGLP-1R [4]; [6]) | pEC50 (hGcgR; [6]) | pEC50 (hGIPR [3]) | pEC50 (hGLP-1R [4]) | pEC50 (hGcgR) | Compound | pEC50 (hGIPR [1]) | pEC50 (hGLP-1R [2]) | pEC50 (human GcgR) | pEC50 (hGIPR [3]; [5]) | pEC50 (hGLP-1R [4]; [5]) | pEC50 (hGcgR; [5])
5 | 9.70 | 8.49 | 7.98 |  |  |  | H-Y[Aib]QGTFTSDFS[Orn][αMeL]LDKK([AEEA-γGlu-C20 diacid])AQ[Aib]AFIEWLLAGGPSSGEPPPSGE-NH2 [Example 103] | 7.45 | 6.32 | 5.59 |  |  | 
6 |  |  |  | 10.90 | 9.77 | 8.80 | H-Y[Aib]QGT[αMePhe(2-F)]TSD[4Pal][αMeS]I[αMeL]LD[Orn]K([AEEA-AEEA-γGlu-C18 diacid])AQ[Aib][Orn]FIEYLIEGGPSSGEPPPSEG-NH2 [Example 491] | 9.16 | 8.02 | 6.80 |  |  | 
7 | 9.51 | 8.32 | 8.36 |  |  |  | H-Y[Aib]QGTFTSDFS[Orn][αMeL]LDKK([AEEA-γGlu-C18 diacid])AQ[Aib]AFIEWLLEGGHSSGEPPPEGS-NH2 [Example 127] | 7.20 | 6.00 | 6.00 |  |  | 
8 | 9.31 | 9.52 | 8.39 |  |  |  | CC[C@H](C)[C@H](NC(=O)[C@H](Cc1ccccc1)NC(=O)[C@H](C)NC(=O)[C@H](CCCNC(=N)N)NC(=O)[C@H](CCC(N)=O)NC(=O)[C@H](C)NC(=O)[C@H](CCCCNC(=O)COCCOCCNC(=O)CC[C@H](NC(=O)CCCCCCCCCCCCCCCCCCC(=O)O)C(=O)O)NC(=O)[C@H](CCCCN)NC(=O)[C@H](CC(=O)O)NC(=O)[C@H](CC(C)C)NC(=O)[C@](C)(CC(C)C)NC(=O)[C@@H](NC(=O)[C@H](CO)NC(=O)[C@H](Cc1ccc(O)cc1)NC(=O)[C@H](CC(=O)O)NC(=O)[C@H](CO)NC(=O)[C@@H](NC(=O)[C@H](Cc1ccccc1)NC(=O)[C@@H](NC(=O)CNC(=O)[C@H](CCC(N)=O)NC(=O)C(C)(C)NC(=O)[C@@H](N)Cc1ccc(O)cc1)[C@@H](C)O)[C@@H](C)O)[C@@H](C)CC)C(=O)N[C@@H](CCC(=O)O)C(=O)N[C@@H](Cc1ccc(O)cc1)C(=O)N[C@@H](CC(C)C)C(=O)N[C@@H](CC(C)C)C(=O)N[C@@H](CCC(=O)O)C(=O)NCC(=O)NCC(=O)N1CCC[C@H]1C(=O)N[C@@H](CO)C(=O)N[C@@H](CO)C(=O)NCC(=O)N[C@@H](CCC(=O)O)C(=O)N1CCC[C@H]1C(=O)N1CCC[C@H]1C(=O)N1CCC[C@H]1C(=O)N[C@@H](CO)C(=O)NCC(N)=O [Example 313] (H-Y[Aib]QGTFTSDYSI[αMeL]LDKK([AEEA-γGlu-C20 diacid])AQRAFIEYLLEGGPSSGEPPPSG-NH2) | 7.06 | 6.87 | 5.48 |  |  | 
